The subject of data set [1] is RS4-11. The experiment in a line: Cytotoxicity against human RS4-11 cells assessed as maximum inhibition of cell growth incubated for 4 days by cellTiter-Glo assay relative to control. It is filed as functional. To be noted: time 4 day. Background: Cellular ATP, detected with luciferase, serves as a proxy for viable cell number.
Data set [2] has as its system MV4-11. The experiment in a line: Cytotoxicity against human MV4-11 cells assessed as maximum inhibition of cell growth incubated for 4 days by cellTiter-Glo assay relative to control. It is filed as functional. Particulars: time 4 day.
The test system of data set [3] is MV4-11. The experiment in a line: Cytotoxicity against human MV4-11 cells assessed as inhibition of cell growth incubated for 4 days by cellTiter-Glo assay. It is filed as functional, cell-based. To be noted: MV4-11, 96 h.
Data set [4] has as its system HL-60. The experiment in a line: Cytotoxicity against human HL-60 cells assessed as inhibition of cell growth incubated for 4 days by cellTiter-Glo assay. It is filed as functional, cell-based. To be noted: HL-60, 96 h.
Data set [5] concerns HL-60. The experiment in a line: Cytotoxicity against human HL-60 cells assessed as maximum inhibition of cell growth incubated for 4 days by cellTiter-Glo assay relative to control. Particulars: time 4 day. The class given is functional.
Data set [6] relates to MOLM-13. The experiment in a line: Cytotoxicity against human MOLM-13 cells assessed as inhibition of cell growth incubated for 4 days by cellTiter-Glo assay. The class given is functional, cell-based. To be noted: MOLM-13, 96 h.
For data set [7], the system named is MOLM-13. The data set is described as follows: Cytotoxicity against human MOLM-13 cells assessed as maximum inhibition of cell growth incubated for 4 days by cellTiter-Glo assay relative to control. It is filed as functional. Particulars: time 4 day.
The target in data set [8] is T1, CREB-binding protein (Homo sapiens, UniProt Q92793). The experiment in a line: Induction of CBP degradation in human RS4-11 cells at 10 nM incubated for 3 hrs by Proteomics analysis. The class given is cell-based.
Target sequence in this assay (Q92793 2-2442 limits assumed): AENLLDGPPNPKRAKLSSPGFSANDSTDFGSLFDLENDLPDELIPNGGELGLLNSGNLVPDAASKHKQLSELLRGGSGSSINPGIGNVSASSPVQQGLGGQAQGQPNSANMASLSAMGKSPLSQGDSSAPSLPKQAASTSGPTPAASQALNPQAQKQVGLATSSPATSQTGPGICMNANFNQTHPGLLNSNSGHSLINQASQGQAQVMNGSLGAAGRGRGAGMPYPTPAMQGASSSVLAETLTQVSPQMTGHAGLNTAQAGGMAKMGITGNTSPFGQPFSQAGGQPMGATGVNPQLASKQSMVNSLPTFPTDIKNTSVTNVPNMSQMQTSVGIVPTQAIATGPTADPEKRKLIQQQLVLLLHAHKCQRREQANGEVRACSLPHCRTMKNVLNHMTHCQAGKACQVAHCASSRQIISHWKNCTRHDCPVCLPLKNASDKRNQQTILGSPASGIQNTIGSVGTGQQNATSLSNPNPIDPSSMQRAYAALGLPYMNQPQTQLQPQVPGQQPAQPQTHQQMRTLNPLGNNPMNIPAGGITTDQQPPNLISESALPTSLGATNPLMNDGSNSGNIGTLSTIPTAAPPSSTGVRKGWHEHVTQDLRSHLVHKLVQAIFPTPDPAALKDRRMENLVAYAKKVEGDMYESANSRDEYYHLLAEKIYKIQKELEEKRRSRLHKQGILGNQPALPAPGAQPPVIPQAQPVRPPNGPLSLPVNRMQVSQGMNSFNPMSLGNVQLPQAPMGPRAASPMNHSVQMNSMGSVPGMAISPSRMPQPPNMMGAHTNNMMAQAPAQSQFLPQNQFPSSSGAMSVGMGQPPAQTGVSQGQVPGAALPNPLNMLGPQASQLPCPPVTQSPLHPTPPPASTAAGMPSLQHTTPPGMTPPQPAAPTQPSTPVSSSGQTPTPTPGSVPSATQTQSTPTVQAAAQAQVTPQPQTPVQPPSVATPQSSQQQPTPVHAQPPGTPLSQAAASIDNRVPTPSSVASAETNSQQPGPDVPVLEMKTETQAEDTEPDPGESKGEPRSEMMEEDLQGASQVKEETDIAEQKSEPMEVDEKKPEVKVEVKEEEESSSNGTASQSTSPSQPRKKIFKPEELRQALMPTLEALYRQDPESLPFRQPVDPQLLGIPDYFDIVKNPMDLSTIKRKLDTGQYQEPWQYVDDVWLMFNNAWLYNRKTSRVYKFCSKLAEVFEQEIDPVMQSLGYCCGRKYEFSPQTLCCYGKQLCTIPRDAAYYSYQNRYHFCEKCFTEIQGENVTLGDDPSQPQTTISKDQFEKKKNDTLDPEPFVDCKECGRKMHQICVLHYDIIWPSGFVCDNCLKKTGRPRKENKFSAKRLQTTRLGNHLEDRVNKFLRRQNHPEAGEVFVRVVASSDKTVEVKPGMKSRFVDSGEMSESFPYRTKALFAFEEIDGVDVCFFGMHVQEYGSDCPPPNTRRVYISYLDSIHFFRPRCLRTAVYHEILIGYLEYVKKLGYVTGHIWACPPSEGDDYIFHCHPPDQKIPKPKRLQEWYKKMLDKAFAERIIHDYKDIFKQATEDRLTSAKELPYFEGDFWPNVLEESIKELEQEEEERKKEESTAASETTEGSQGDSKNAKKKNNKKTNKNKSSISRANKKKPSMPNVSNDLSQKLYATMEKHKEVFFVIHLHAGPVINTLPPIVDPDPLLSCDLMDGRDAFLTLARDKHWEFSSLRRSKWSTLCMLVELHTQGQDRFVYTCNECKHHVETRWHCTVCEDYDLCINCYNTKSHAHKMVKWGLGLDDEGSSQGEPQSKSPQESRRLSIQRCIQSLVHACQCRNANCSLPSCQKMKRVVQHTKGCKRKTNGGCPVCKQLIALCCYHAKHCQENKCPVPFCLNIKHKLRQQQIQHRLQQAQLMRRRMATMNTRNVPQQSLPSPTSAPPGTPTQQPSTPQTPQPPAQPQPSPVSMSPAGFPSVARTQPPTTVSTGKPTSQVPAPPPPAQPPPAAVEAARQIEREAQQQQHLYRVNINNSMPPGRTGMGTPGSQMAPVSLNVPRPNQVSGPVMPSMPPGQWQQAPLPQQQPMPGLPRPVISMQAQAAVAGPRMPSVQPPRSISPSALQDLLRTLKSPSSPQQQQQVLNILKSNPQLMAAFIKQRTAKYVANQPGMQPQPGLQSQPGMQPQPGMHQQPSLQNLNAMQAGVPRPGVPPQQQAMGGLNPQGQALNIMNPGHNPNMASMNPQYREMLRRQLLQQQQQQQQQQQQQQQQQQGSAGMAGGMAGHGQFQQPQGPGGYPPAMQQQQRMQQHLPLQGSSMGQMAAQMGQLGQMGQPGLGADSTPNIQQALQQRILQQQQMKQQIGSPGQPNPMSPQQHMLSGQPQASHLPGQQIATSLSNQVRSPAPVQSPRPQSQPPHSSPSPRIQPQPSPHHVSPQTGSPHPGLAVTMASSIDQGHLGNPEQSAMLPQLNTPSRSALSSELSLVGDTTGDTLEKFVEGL
The test system of data set [9] is Mus musculus. The experiment in a line: In vivo induction of p300 degradation in human RS4-11 cells xenografted in SCID mouse at 1 mg/kg, ip measured after 3 hrs by Western blot analysis. The class given is functional, organism-based. (In general: Xenograft models place foreign cells or tissue in a host animal.)
Data set [10] concerns the target T1, CREB-binding protein. The experiment in a line: Induction of CBP degradation in human RS4-11 cells incubated for 4 hrs by Western blot assay. The class given is cell-based. For orientation: A western blot detects proteins with antibodies after separation by electrophoresis.
The target in data set [11] is T1, CREB-binding protein. The experiment in a line: Induction of CBP degradation in human RS4-11 cells assessed as maximal degradation incubated for 4 hrs by Western blot assay. It is filed as cell-based.
Target sequence in this assay (Q92793 2-2442 limits assumed): as above
Data set [12] deals with T2, Histone acetyltransferase p300 (Homo sapiens, UniProt Q09472). The data set is described as follows: Induction of p300 degradation in human RS4-11 cells incubated for 4 hrs by Western blot assay. It is filed as cell-based.
T2 sequence (Q09472 whole entry): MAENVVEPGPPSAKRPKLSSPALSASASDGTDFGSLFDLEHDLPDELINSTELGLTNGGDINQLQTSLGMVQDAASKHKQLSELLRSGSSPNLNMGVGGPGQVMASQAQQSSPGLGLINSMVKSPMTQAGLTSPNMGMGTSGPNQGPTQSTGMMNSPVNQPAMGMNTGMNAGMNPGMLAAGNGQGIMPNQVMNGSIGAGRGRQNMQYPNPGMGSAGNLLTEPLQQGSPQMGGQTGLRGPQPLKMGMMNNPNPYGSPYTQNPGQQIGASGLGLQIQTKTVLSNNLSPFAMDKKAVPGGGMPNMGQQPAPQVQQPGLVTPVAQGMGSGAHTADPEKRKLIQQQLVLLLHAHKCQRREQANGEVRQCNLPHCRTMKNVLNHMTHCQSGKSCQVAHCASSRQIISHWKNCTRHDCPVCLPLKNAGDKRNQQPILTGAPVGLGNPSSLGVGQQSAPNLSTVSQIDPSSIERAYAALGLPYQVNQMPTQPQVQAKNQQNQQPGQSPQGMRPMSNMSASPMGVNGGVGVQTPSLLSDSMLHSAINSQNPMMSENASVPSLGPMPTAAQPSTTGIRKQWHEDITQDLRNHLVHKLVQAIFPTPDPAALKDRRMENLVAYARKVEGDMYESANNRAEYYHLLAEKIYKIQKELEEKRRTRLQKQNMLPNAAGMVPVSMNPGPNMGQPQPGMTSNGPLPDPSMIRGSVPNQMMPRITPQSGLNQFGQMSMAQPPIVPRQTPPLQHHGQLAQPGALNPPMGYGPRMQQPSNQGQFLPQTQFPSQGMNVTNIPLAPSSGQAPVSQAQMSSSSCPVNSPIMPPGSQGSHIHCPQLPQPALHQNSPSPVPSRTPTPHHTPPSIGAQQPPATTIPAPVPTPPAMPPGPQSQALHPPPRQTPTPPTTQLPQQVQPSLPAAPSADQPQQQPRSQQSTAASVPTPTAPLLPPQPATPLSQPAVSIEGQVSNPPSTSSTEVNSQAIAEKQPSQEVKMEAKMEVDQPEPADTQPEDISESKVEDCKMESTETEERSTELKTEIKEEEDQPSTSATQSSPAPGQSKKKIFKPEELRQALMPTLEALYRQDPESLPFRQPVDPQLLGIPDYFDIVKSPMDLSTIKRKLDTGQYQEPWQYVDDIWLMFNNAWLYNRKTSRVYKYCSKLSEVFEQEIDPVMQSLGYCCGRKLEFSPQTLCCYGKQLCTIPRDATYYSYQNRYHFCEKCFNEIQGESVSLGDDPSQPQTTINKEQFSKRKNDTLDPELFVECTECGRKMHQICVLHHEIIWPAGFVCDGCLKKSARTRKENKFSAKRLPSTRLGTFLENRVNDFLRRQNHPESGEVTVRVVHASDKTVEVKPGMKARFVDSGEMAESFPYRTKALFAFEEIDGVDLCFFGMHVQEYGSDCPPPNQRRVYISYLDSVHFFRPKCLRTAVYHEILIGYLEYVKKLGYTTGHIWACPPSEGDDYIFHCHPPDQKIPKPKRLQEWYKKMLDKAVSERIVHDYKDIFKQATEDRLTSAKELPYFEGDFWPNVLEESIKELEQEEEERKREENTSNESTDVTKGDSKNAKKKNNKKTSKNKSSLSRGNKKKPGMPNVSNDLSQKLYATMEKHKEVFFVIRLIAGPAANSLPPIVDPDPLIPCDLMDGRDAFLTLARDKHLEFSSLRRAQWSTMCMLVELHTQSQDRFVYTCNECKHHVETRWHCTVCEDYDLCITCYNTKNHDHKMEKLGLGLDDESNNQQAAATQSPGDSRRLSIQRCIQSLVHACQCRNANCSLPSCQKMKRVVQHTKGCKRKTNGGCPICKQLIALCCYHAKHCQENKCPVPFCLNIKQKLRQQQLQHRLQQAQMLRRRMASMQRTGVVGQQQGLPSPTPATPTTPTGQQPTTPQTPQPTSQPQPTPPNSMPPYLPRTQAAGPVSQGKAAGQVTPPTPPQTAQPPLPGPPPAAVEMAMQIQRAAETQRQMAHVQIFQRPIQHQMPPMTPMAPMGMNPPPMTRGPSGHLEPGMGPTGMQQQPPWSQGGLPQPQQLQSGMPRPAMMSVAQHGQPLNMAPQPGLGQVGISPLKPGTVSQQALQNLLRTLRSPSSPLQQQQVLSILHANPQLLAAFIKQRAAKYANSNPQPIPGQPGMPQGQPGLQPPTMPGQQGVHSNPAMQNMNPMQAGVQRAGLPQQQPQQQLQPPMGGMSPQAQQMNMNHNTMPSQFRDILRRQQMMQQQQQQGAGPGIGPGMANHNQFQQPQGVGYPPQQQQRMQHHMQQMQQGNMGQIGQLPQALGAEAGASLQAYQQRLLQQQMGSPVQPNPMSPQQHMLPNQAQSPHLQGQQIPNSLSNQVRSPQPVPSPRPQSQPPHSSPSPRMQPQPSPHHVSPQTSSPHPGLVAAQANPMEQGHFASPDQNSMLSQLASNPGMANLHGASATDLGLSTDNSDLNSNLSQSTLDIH
The target of data set [13] is T2, Histone acetyltransferase p300. The experiment in a line: Induction of p300 degradation in human RS4-11 cells assessed as maximal degradation incubated for 4 hrs by Western blot assay relative to control. The class given is cell-based.
For data set [14], the system named is RS4-11. The data set is described as follows: Cytotoxicity against human RS4-11 cells assessed as inhibition of cell growth incubated for 4 days by cellTiter-Glo assay. Particulars: RS4-11, 96 h. The class given is functional, cell-based.
In data set [15] the target is T2, Histone acetyltransferase p300. The data set is described as follows: Induction of p300 degradation in human RS4-11 cells at 10 nM incubated for 3 hrs by Proteomics analysis. It is filed as cell-based.
The target of data set [16] is Non-selective voltage-gated ion channel VDAC1 (Homo sapiens) (UniProt P21796). The data set is described as follows: Induction of VDAC1 degradation in human RS4-11 cells assessed as fold reduction in protein level at 10 nM incubated for 4 hrs by Western blot analysis. It is filed as cell-based.
Sequence of Non-selective voltage-gated ion channel VDAC1 (Homo sapiens) (P21796 whole entry): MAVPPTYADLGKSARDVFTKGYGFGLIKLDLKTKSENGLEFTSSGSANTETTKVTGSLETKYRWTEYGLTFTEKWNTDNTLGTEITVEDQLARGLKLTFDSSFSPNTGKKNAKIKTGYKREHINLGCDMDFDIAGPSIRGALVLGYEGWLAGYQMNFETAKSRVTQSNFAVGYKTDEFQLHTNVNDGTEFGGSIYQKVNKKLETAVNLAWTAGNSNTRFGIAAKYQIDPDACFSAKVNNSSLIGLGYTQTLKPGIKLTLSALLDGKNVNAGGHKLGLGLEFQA
The target of data set [17] is Bromodomain-containing protein 4 (Homo sapiens) (UniProt O60885). The experiment in a line: Induction of BRD4 degradation in human RS4-11 cells at 10 nM incubated for 4 hrs by Western blot analysis. It is filed as cell-based.
Data set [18] has as its target T3, Non-selective voltage-gated ion channel VDAC2 (Homo sapiens) (UniProt P45880).
T3 sequence (whole entry): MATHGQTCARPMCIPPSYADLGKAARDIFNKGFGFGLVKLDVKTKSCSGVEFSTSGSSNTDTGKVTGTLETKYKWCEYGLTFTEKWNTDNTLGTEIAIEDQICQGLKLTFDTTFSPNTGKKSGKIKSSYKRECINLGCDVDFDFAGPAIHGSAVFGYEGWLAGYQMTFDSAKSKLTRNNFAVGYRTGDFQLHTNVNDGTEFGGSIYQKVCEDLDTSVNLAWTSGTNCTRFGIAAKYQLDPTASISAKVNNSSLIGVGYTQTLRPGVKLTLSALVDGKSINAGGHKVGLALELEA
The experiment in a line: Induction of VDAC2 degradation in human RS4-11 cells assessed as fold reduction in protein level at 10 nM incubated for 4 hrs by Western blot analysis. The class given is cell-based.

Data set [19] has as its system RS4-11. The experiment in a line: Induction of cell cycle arrest in human RS4-11 cells assessed as accumulation at G1 phase at 1 uM measured after 8 hrs by PI staining based flow cytometric analysis. It is filed as functional.
Data set [20] has as its system RS4-11. The experiment in a line: Downregulation of MYB gene expression in human RS4-11 cells at 1 nM measured after 8 hrs by qRT-PCR analysis. It is filed as functional, cell-based.
Data set [21] relates to Mus musculus. The data set is described as follows: In vivo induction of CBP degradation in human RS4-11 cells xenografted in SCID mouse at 1 mg/kg, ip measured after 3 hrs by Western blot analysis. The class given is functional, organism-based.
For data set [22], the system named is RS4-11. The experiment in a line: In vivo induction of p300 degradation in human RS4-11 cells xenografted in SCID mouse at 3 mg/kg, ip measured after 3 to 6 hrs by Western blot analysis. The class given is functional, organism-based. To be noted: time 3-6 hrs.
Data set [23] deals with RS4-11. The data set is described as follows: In vivo induction of CBP degradation in human RS4-11 cells xenografted in SCID mouse at 3 mg/kg, ip measured after 3 to 6 hrs by Western blot analysis. It is filed as functional, organism-based. Particulars: time 3-6 hrs.
The test system of data set [24] is Mus musculus. The experiment in a line: In vivo induction of CBP degradation in human RS4-11 cells xenografted in SCID mouse at 3 mg/kg, ip measured after 24 to 48 hrs by Western blot analysis. The class given is functional, organism-based. Particulars: time 24-48 hrs.
Data set [25] deals with Mus musculus. The experiment in a line: In vivo induction of p300 degradation in human RS4-11 cells xenografted in SCID mouse at 3 mg/kg, ip measured after 24 to 48 hrs by Western blot analysis. To be noted: time 24-48 hrs. The class given is functional, organism-based.
The nature of data set [26]: Drug concentration in SCID mouse tumor xenografted with RS4-11 cells at 3 mg/kg, ip measured after 3 hrs by LC-HRMS method. The class given is ADME, organism-based, Neoplasm. To be noted: read-out: Ct.
A short description of data set [27]: Drug concentration in SCID mouse tumor xenografted with RS4-11 cells at 1 mg/kg, ip measured after 3 hrs by LC-HRMS method. The class given is ADME, organism-based, Neoplasm. To be noted: read-out: Ct.
Data set [28] is described as follows: Drug concentration in IP dosed SCID mouse tumor xenografted with RS4-11 cells measured after 24 to 48 hrs by LC-HRMS method. It is filed as ADME, organism-based, Neoplasm. To be noted: in vivo, time 24-48 hrs.
Data set [29] deals with RS4-11. The data set is described as follows: Antitumor activity against human RS4-11 cells xenografted in SCID mouse assessed as tumor growth inhibition at 1 mg/kg, ip administered twice a week on day 1 and day 4 for 2 weeks relative to control. The class given is functional. On the set-up: scale not given: the % may be the effect or the level left.
In data set [30] the test system is RS4-11. The experiment in a line: Antitumor activity against human RS4-11 cells xenografted in SCID mouse assessed as tumor growth inhibition at 3 mg/kg, ip administered once a week on day 1 for 2 weeks relative to control. The class given is functional. On the set-up: scale not given: the % may be the effect or the level left.
Data set [31] can be described thus: Toxicity in SCID mouse xenografted with human RS4-11 cells assessed as body weight loss at 1 mg/kg, ip administered twice a week on day 1 and day 4 for 2 weeks relative to control. Particulars: in vivo, 336 h. The class given is organism-based.
The nature of data set [32]: Toxicity in SCID mouse xenografted with human RS4-11 cells assessed as body weight loss at 3 mg/kg, ip administered once a week on day 1 for 2 weeks relative to control. It is filed as organism-based. To be noted: in vivo, 336 h.
The subject of data set [33] is RS4-11. The experiment in a line: Antitumor activity against human RS4-11 cells xenografted in SCID mouse assessed as tumor growth inhibition at 0.3 mg/kg, ip administered five days a week for 2 weeks relative to control. On the set-up: scale not given: the % may be the effect or the level left. The class given is functional.
The subject of data set [34] is RS4-11. The data set is described as follows: Antitumor activity against human RS4-11 cells xenografted in SCID mouse assessed as tumor growth inhibition at 1 mg/kg, ip administered thrice a week on day 1, 3 and 5 for 2 weeks relative to control. It is filed as functional. On the set-up: scale not given: the % may be the effect or the level left.
Data set [35] in a line: Toxicity in SCID mouse xenografted with human RS4-11 cells assessed as body weight loss at 0.3 mg/kg, ip administered five days a week for 2 weeks relative to control. The class given is organism-based. Particulars: in vivo, 336 h.
Data set [36] in a line: Toxicity in SCID mouse xenografted with human RS4-11 cells assessed as body weight loss at 1 mg/kg, ip administered three times a week for 2 weeks relative to control. It is filed as organism-based. Particulars: in vivo, 336 h.
The subject of data set [37] is RS4-11. The data set is described as follows: Downregulation of MYC gene expression in human RS4-11 cells at 1 nM measured after 8 hrs by qRT-PCR analysis. It is filed as functional, cell-based.

Several values for one entry are separate records, joined by “and”; a condition that tells them apart may be missing. Identical values can stand only once. Activity calls are given as the source filed them. No cut-off for these calls is given here.

For orientation: IC50 means the point on the concentration scale where inhibition reaches its midpoint. For the compound `CNC(=O)Nc1ccc2c(c1)CC[C@]21CN(CC(=O)N(Cc2ccc(F)cc2)[C@H](C)C(F)(F)F)C(=O)O1`, the Imax in data set [1] (96 h) was 93.5% and 89% and 99%; in [2], 94%; in data set [5] it was 99%; in data set [7] it was 96%. In addition, the concentration for half-maximal inhibition (IC50) amounted to 156 nM in data set [3], 152 nM in data set [4] and 239 nM in [6].

By EC50 is commonly meant the concentration giving half of the maximal effect. A word on the Emax: it is the size of the effect at its maximum, as opposed to the concentration needed. Take `CC(=O)N1CCc2c(c(-c3cccc4cc(-c5ccc(C(=O)NC6CCN(c7ccc8c(c7)CN(C7CCC(=O)NC7=O)C8=O)CC6)nc5)ncc34)nn2C2CCOCC2)C1` (configuration not stated): the result in data set [8], in data set [9], in data set [15], in data set [19], in data set [20] and in [21] was Active. For the same compound, the result in data set [22], in data set [23] and in data set [37] was Active. In addition, the values for the EC50 in data set [10] and in data set [12] were 0.05 nM and 0.2 nM, respectively. The Emax in data set [11] and in data set [13] was 99% in each case. Further, the Imax in data set [1] came out at 94%; in data set [2] it was 99%; in [5], 96%; in data set [7], 96%. Moreover, the concentration for half-maximal inhibition (IC50) was 0.1 nM in data set [14], 0.04 nM in [3], 0.54 nM in [4] and 2.3 nM in data set [6]. Further, the fold change (FC) in [16] and in data set [18] was 2 each time. Moreover, the result in [17], in data set [24] and in data set [25] was inactive. Further, the results for the concentration at 3 h in data set [26] and in data set [27] were 240 ng/g and 57.5 ng/g, respectively. Also, in [28], the Drug uptake result is “Not Active”. Also, the Activity was 81% in data set [29]; 81% in [30]; under 10% in data set [31]; under 10% in data set [32]; 68% in data set [33]; 68% in data set [34]. Also, the Activity in data set [35] and in data set [36] was under 3% in each case.

As for `CNC(=O)c1ccc(-c2cc3cccc(-c4nn(C5CCOCC5)c5c4CN(C(C)=O)CC5)c3cn2)cn1`, the Imax in data set [1] came out at 75%; in data set [2], 94%; in data set [5], 99%; in data set [7] it was 98%.

As for `CO[C@H]1CC[C@@H](n2c(C3CCCC(=O)N3c3ccc(F)c(F)c3)nc3cc(-c4c(C)noc4C)ccc32)CC1` (some centres not stated), the Imax worked out at 99.8% in data set [1], 98% in data set [2], 99% in [5] and 99% in [7]. Moreover, the IC50 in data set [14] was 544 nM; in data set [3], 51.6 nM; in data set [4] it was 30 nM; in data set [6] it was 23 nM. In data set [19], the outcome was Active.

These data come from ChEMBL document CHEMBL5338817, “Discovery of Exceptionally Potent, Selective, and Efficacious PROTAC Degraders of CBP and p300 Proteins” (J Med Chem, 2023).
